From patent US20260021167A1, “COMPOSITIONS AND METHODS FOR TREATING OR PREVENTING NEURODEGENERATIVE DISEASES” (Delaware State University, priority 2022, published 2026)

What was measured:
SENP-1 on α-synuclein = molecular target: T1, SENP-1 on α-synuclein (Mus musculus, UniProt P59110); experiment: Western blot of SENP-1 on α-synuclein in α-synuclein IP tissue samples; format: in vivo; conditions: PFF-injected mice, vs PFF only
T1 construct: from tissue; host or cells: mouse brain: midbrain and striatum, α-synuclein immunoprecipitates
T1 sequence (P59110 1-640): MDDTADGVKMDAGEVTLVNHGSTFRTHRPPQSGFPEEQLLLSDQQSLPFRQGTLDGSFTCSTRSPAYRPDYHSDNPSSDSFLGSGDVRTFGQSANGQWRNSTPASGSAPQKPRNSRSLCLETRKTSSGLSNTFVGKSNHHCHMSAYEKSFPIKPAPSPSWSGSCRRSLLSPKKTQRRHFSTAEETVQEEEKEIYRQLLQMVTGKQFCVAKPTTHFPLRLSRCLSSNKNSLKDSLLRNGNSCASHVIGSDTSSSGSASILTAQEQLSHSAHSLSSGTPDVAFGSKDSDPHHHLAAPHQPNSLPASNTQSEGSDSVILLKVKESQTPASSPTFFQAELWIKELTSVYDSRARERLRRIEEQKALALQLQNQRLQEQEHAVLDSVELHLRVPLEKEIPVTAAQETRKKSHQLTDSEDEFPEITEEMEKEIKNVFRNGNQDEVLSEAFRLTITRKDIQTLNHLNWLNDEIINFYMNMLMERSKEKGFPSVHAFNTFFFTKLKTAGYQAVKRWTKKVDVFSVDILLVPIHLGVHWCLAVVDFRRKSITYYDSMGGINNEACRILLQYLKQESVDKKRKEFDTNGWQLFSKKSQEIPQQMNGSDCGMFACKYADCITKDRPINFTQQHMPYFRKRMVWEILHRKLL
Method: A) In Western blots, Momordin reversed the toxicity from PFF injection in reducing phospho-α-synuclein and SENP-1 on α-synuclein in the MB and STR. […] A pathological marker, phosphorylated α-synuclein was increased by PFF injection, which was reversed by Momordin treatment in the MB (F) and the STR (G).
A mouse model of Parkinson's disease is C57BL/6 male or female mice (50% each) injected with 5 μg of mouse PFF at 12 months old, followed by a treatment below for 6-7 weeks: • 1) without PFF injection, followed by vehicle (control, n=7); • 2) PFF injection, followed by vehicle (PFF only: control, n=8); • 3) PFF injection, followed by daily 10 mg/kg Momordin gavage (n=7-8); • 4) PFF injection, followed by daily 50 mg/kg Momordin gavage (n=7-8).

[1] = Passage of the BBB in mice; format: in vivo, mouse; conditions: 10 or 50 mg/kg

CC1(C)CC[C@]2(C(=O)O)CC[C@]3(C)C(=CC[C@@H]4[C@@]5(C)CC[C@H](O[C@@H]6O[C@H](C(=O)O)[C@@H](O)[C@H](O[C@@H]7OC[C@@H](O)[C@H](O)[C@H]7O)[C@H]6O)C(C)(C)[C@@H]5CC[C@]43C)[C@@H]2C1 [Momordin lc]
PFF-induced SENP-1 on α-synuclein in the MB (α-synuclein IP) (SENP-1 on α-synuclein; midbrain): reduced | PFF-induced SENP-1 on α-synuclein in the STR (α-synuclein IP) (SENP-1 on α-synuclein; striatum): reduced | passage of the BBB [1]: effectively pass the BBB
